Experimental data published in US5167947A, “Enhancement of absorption of radioprotective drugs” (Southwest Research Institute, priority 1989, dated 1992).
“And” between values parts separate entries of the source, which are not always exact repeats. Equal entries are not always repeated. Where two headings read alike, the source gives them in different places.

What was measured:
[1] = in situ rat intestinal perfusion of ethiofos: circulating perfusate and portal blood; assay type: in vivo, rat (male Sprague-Dawley); conditions: for plasma concentration change on addition of Na2 EDTA: 1.0 mM Na2 EDTA vs without; for levels in portal blood samples, change on addition of Na2 EDTA: 1 mM Na2 EDTA vs without, ethiofos / total WR-1065; for level in portal blood: perfusion of [14C]ethiofos in pH-adjusted water, intact ethiofos / total WR-1065
Procedure: Male Sprague-Dawley rats were maintained on a regular diet of rat chow prior to dosing and fasted 16 h before the experiment. Water was available ad libitum.
Rats weighing between 250 g and 325 g were chosen and anesthetized with 50.0 mg/kg sodium pentobarbital ip. The cannulation of the intestine was performed as previously described.
The proximal cannula was inserted through the stomach wall past the pyloric sphincter for experiments which included the bile flow. Experiments which excluded the bile flow were cannulated approximately 3 cm distal to the pyloric spinchter. Five microcuries of (^3 H)PEG 4000 was included in the perfusate to monitor water flux. For some experiments, 1 mCi of (^14 C)ethiofos was added to the reservoir.
Concommitant sampling of blood was accomplished by insertion of a catheter in the portal vein via the ileocecal vein. […] Rectal temperature was monitored in early experiments to assure maintenance of body temperature in this system.
(§1) Ethiofos was separated on a Bioanalytical Systems […] Phase II C18 ODS analytical column with an Uptight guard column packed with Whatman Pellicular C18 37-53 mm material. Amperometric detection was conducted with a Bioanalytical Systems LC 4B amperometric detector with a Hg/Au transducer ell. Detector signal was output to a Waters Associates Model 840 data system.
(§2) A […] portion of blood was immediately treated with […] of chilled (0°-4° C.) 1.0M HC10 containing 1 g/L EDTA. The samples were vortexed and centrifuged at 15,600×g for 45 sec. […] Samples were immediately frozen at -78° C. in a dry ice/2-propanol bath and transferred to a freezer maintained at -78° C.
(§3) The samples were prepared for HPLC analysis by adding 200 ml of buffer (pH 10). Samples were injected onto HPLC Unit A and amperometrically detected with an Hg/Au electrode at +0.25 V. The assay method has been previously described by Swynnerton, McGovern, Nino and Mangold: J. Radiat. Oncol.
(§4) J. Radiat. Oncol. […] Samples were injected on HPLC Unit B and amperometrically detected at +0.15 V.

[2] = intraduodenal administration of ethiofos to Rhesus monkeys, plasma levels; assay type: in vivo; conditions: Rhesus monkey; for plasma levels on coadministration of ethiofos with EDTA: ethiofos / free and total WR-1065
Procedure: An ethiofos solution was administered via rapid infusion through an infant nasogastric tube instilled in the duodenum of Rhesus monkeys. X-rays were taken to ensure proper location of the tube prior to drug administration. […] Prior to administration of dosing solution, 10 ml of 1 mM EDTA was predosed into the duodenum over 1 hr using a calibrated infusion pump.
as §1, §2, §3, §4

[3] = in vivo; cited from earlier work
[4] = cited from earlier work
[5] = system: Rhesus monkeys; conditions: cited from earlier work
[6] = system: dogs; conditions: cited from earlier work
[7] = system: circulating calcium; conditions: human clinical trials; cited from earlier work
[8] = system: mice; conditions: intravenous; cited from earlier work
[9] = in vivo; cited from earlier work; remark: listed apart in the source
[10] = stomach acid; cited from earlier work
[11] = system: mice; conditions: cited from earlier work

O=C(O)CN(CCN(CC(=O)O)CC(=O)O)CC(=O)O [EDTA, ethylenediaminetetraacetic acid]
protection of ethiofos degradation in the lumen by EDTA ([1]; rat in situ): some protection | rate of absorption of ethiofos with EDTA ([1]; rat in situ): increase the rate of absorption | EDTA concentration at which increased absorption reaches a maximum ([1]; rat intestinal perfusion of ethiofos): approximately 1 mM | EDTA concentration giving highest ethiofos levels in portal blood ([1]; rat, 90 minutes in situ intestinal perfusion): 1.5 mM | absorption of ethiofos with EDTA ([2]; intraduodenal, awake): enhanced the absorption

NCCCNCCS [WR-1065]
plasma concentration change on addition of Na2 EDTA ([1]; rat): significant increase | levels in portal blood samples, change on addition of Na2 EDTA ([1]; rat): significant increases | metabolite formed in the intestinal lumen ([1]; rat, from perfusate mass balance): major metabolite | level in portal blood ([1]; rat, no EDTA): comparatively high levels | toxicity of the free thiol relative to the parent drug ethiofos [3]: much more toxic | plasma levels on coadministration of ethiofos with EDTA ([2]; intraduodenal, awake): substantial increase | halflife compared with ethiofos ([4]; rhesus monkey, in vivo, iv): much long halflife

NCCCNCCSP(=O)(O)O [ethiofos, S-2-(3-aminopropylamino)ethylphosphorothioic acid]
protection against X-rays and gamma radiation ([5]; Rhesus monkeys, intravenous): has been shown to protect | protection (oral dosing) ([5]; monkeys, oral): failed to protect | protection against X-rays and gamma radiation ([6]; intravenous): has been shown to protect | protection (oral dosing) ([6]; oral): failed to protect | disappearance of parent compound from the perfusate ([1]; rat in situ, [14C]ethiofos in pH-adjusted water, first 30 minutes, no EDTA): fairly rapid rate | radioactivity accounted for by ethiofos and measured metabolite (mass balance of perfusate) ([1]; rat intestinal perfusate, no EDTA): approximately 85% | radioactivity not accounted for by WR-1065 and ethiofos ([1]; rat intestinal perfusate, no EDTA, may be disulfides): 15% | plasma concentration change on addition of Na2 EDTA ([1]; rat): significant increase | levels in portal blood samples, change on addition of Na2 EDTA ([1]; rat): significant increases | labelled ethiofos / radioactivity remaining in the circulating perfusate ([1]; rat, 90 min perfusion, pH-adjusted water, no EDTA): 90.5±1.7% and 90.5±1.74% | radioactivity remaining in the circulating perfusate ([1]; rat, 90 min perfusion, with 1.0 mM Na2 EDTA): 85.8±1.09% | factor of increase of appearance of ethiofos in rat portal blood ([1]; rat, EDTA enhancement, 90 minutes in situ perfusion): 20 | level in portal blood ([1]; rat, no EDTA): transient and low levels | loss of circulating calcium [7]: loss of circulating calcium | protection against X-rays and gamma radiation [8]: has been shown to protect | slowing of stomach motility and gastric emptying [9]: can slow stomach motility and gastric emptying | plasma levels on coadministration of ethiofos with EDTA ([2]; intraduodenal, awake): detectable levels | AUC ([2]; in vivo, intraduodenal 150 mg/kg, in the presence of EDTA (47:1 ethiofos to EDTA), read-out: AUC (plasma concentration-time curve)): 0.55 µM·h | plasma halflife ([4]; iv, rhesus monkeys 150 mg/kg): approximately 18 minutes | ethiofos or its metabolites excreted in the urine within 120 hours ([4]; rhesus monkeys, iv 150 mg/kg, most within 24 hours): 80% | hydrolysis in the acidic environment of the stomach [10]: can be hydrolyzed | approximate LD50 ([11]; intraperitoneal): ~950 mg/kg | approximate LD50 ([11]; oral): ~1500 mg/kg
